Test results from patent US20110190503A1, “Thiazolopyridin-2-yloxy-phenyl and thiazolopyrazin-2-yloxy-phenyl amines as modulators of leukotriene A4 hydrolase” (Janssen Pharmaceutical NV, priority 2008, published 2011).

Molecular target: T1, recombinant human LTA4 hydrolase (rhLTA4H) (Homo sapiens, UniProt P09960)
T1 construct: made in house; host or cells: Spodoptera frugiperda (Sf-9) cells, recombinant baculovirus (pFastBac1)
T1 sequence (P09960 1-611): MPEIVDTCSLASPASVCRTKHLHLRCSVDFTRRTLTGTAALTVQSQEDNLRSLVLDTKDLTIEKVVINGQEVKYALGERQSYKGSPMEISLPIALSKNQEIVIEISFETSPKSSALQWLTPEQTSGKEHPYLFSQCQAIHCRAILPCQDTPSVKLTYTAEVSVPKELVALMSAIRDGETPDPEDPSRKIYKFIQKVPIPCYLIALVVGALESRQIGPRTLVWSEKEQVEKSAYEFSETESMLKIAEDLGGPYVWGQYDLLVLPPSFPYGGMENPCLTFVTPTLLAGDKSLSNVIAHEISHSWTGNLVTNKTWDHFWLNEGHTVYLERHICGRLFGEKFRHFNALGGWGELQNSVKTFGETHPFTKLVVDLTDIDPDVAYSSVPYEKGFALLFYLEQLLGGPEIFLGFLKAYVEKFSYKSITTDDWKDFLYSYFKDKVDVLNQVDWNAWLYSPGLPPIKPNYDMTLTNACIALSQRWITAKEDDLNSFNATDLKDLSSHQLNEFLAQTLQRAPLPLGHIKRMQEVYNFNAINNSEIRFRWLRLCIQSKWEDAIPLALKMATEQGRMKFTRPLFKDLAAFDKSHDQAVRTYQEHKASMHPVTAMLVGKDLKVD
Experiment: Recombinant human LTA4 hydrolase assay for LTA4 hydrolase inhibitor activity
Assay type: biochemical
Conditions: rhLTA4H, LTA4 substrate, LTB4 by immunoassay; single determination or average; read-out: IC50
Method: Assay 1: Recombinant Human LTA4 Hydrolase Assay for LTA4 Hydrolase Inhibitor Activity
Compounds of the present invention were tested for LTA4 hydrolase inhibitor activity against recombinant human LTA4 hydrolase (rhLTA4H). Vectors were prepared and used to express rhLTA4H essentially as follows: LTA4 hydrolase encoding DNA was amplified by polymerase chain reaction (PCR) using a human placental cDNA library as a template. […] The amplified 1.9 kb DNA fragment encoding LTA4 hydrolase was isolated and cloned into the pFastBac1 vector (Invitrogen). Recombinant baculovirus was generated as described by the manufacturer, and used to infect Spodoptera frugiperda (Sf-9) cells. […] The purified enzyme solution was adjusted to contain 0.29 mg/mL LTA4 hydrolase, 50 mM Tris (pH 8.0), 150 mM NaCl, 5 mM dithiothreitol, 50% glycerol, and EDTA-free Complete protease inhibitor cocktail (Roche).
LTA4 substrate was prepared from the methyl ester of LTA4 (Cayman Chemical) by treatment with 67 equiv of NaOH under nitrogen at rt for 40 min. The LTA4 substrate in its free acid form was kept frozen at −80° C. until needed. Each compound was diluted to different concentrations in assay buffer (from Assay Designs) containing 10% DMSO. A 25-μL aliquot of each compound dilution was incubated for 10 min at rt with an equal volume of assay buffer containing 10 ng of recombinant human LTA4H. The solution was then adjusted to 200 μL with assay buffer. […] Each reaction was carried out at rt for 30 min. The reaction was stopped by diluting 10 μL of the reaction mixture with 200 μL of assay buffer. LTB4 was quantified in the diluted sample by a commercially available enzyme-linked immunoassay (Cayman Chemical Co.), as recommended by the manufacturer. Positive controls, under essentially identical conditions but without addition of an inhibitor compound, and negative controls, containing all assay components except enzyme, were routinely run in each experiment. IC50 values were determined by nonlinear regression of the activity data at different compound concentrations using Graphpad Prism 4.0, one site binding competition.
The values presented here are the result of a single determination or an average of two or more determinations, as indicated in parentheses following each value. For compounds tested three or more times, the average value is followed by the standard deviation

| Compound | IC50 |
| --- | --- |
| c1ccc2c(c1)CCCN2CCOc1ccc(Oc2nc3ncccc3s2)cc1 [Example 7, 1-{2-[4-([1,3]Thiazolo[4,5-b]pyridin-2-yloxy)phenoxy]ethyl}-1,2,3,4-tetrahydroquinoline] | 310 nM |
| NC(=O)C1CCN(CCOc2ccc(Oc3nc4cccnc4s3)cc2)CC1 [Example 35, 1-{2-[4-([1,3]Thiazolo[5,4-b]pyridin-2-yloxy)phenoxy]ethyl}piperidine-4-carboxamide] | 350 nM |
| OC1(c2ccc(Cl)cc2)CCN(CCOc2ccc(Oc3nc4cccnc4s3)cc2)CC1 [Example 39, 4-(4-Chlorophenyl)-1-{2-[4-([1,3]thiazolo[5,4-b]pyridin-2-yloxy)phenoxy]ethyl}piperidin-4-ol] | 260 nM |
| COc1ccccc1C1CCN(CCOc2ccc(Oc3nc4cccnc4s3)cc2)CC1 [Example 41, 2-(4-{2-[4-(2-Methoxyphenyl)piperidin-1-yl]ethoxy}phenoxy)[1,3]thiazolo[5,4-b]pyridine] | 340 nM |
| O=C(O)C1CCN(CCOc2ccc(Oc3nc4cccnc4s3)cc2)CC1 [Example 44, 1-{2-[4-([1,3]Thiazolo[5,4-b]pyridin-2-yloxy)phenoxy]ethyl}piperidine-4-carboxylic acid] | 660 nM |
| O=C1CCCN1C1CCN(CCc2ccc(Oc3nc4cccnc4s3)cc2)CC1 [Example 68, 1-(1-{2-[4-([1,3]Thiazolo[5,4-b]pyridin-2-yloxy)phenyl]ethyl}piperidin-4-yl)pyrrolidin-2-one] | 280 nM |
| O=C1CCCN1C1CCN(Cc2ccc(Oc3nc4cccnc4s3)cc2)CC1 [Example 112, 1-{1-[4-([1,3]Thiazolo[5,4-b]pyridin-2-yloxy)benzyl]piperidin-4-yl}pyrrolidin-2-one] | 370 nM |
| NC(=O)C1CCN(Cc2ccc(Oc3nc4cccnc4s3)cc2)CC1 [Example 113, 1-[4-([1,3]Thiazolo[5,4-b]pyridin-2-yloxy)benzyl]piperidine-4-carboxamide] | 570 nM |
| c1cc2nc(Oc3ccc(CN4CCCCC4)cc3)sc2cn1 [Example 114, 2-[4-(Piperidin-1-ylmethyl)phenoxy][1,3]thiazolo[5,4-c]pyridine] | 680 nM |
| CC(=O)N[C@H]1C[C@H]2CC[C@@H](C1)N2Cc1ccc(Oc2nc3ccncc3s2)cc1 [Example 115, meso-N-{(3-endo)-8-[4-([1,3]Thiazolo[5,4-c]pyridin-2-yloxy)benzyl]-8-azabicyclo[3.2.1]oct-3-yl}acetamide] | 320 nM |
| CC(=O)N1C[C@@H]2C[C@H]1CN2Cc1ccc(Oc2nc3ccc(C)nc3s2)cc1 [Example 118, 2-(4-{[(1S,4S)-5-Acetyl-2,5-diazabicyclo[2.2.1]hept-2-yl]methyl}phenoxy)-5-methyl[1,3]thiazolo[5,4-b]pyridine] | 3740 nM |
| CC(=O)N1C[C@@H]2C[C@H]1CN2Cc1ccc(Oc2nc3nc(C)ccc3s2)cc1 [Example 126, 2-(4-{[(1S,4S)-5-Acetyl-2,5-diazabicyclo[2.2.1]hept-2-yl]methyl}phenoxy)-5-methyl[1,3]thiazolo[4,5-b]pyridine] | 920 nM |
| O=C(O)C1CCN(Cc2ccc(Oc3nc4cccnc4s3)cc2)CC1 [Example 132, 1-[4-([1,3]Thiazolo[5,4-b]pyridin-2-yloxy)benzyl]piperidine-4-carboxylic acid] | 1000 nM |
| c1cc2sc(Oc3ccc(CN4CCCCC4)cc3)nc2cn1 [Example 133, 2-[4-(Piperidin-1-ylmethyl)phenoxy][1,3]thiazolo[4,5-c]pyridine] | 1870 nM |

The next molecules have a lower IC50 than those just listed; values first:

| IC50 | Compound |
| --- | --- |
| 110 nM | c1ccc2c(c1)CN(CCOc1ccc(Oc3nc4ncccc4s3)cc1)C2 [Example 2, 2-{4-[2-(1,3-Dihydro-2H-isoindol-2-yl)ethoxy]phenoxy}[1,3]thiazolo[4,5-b]pyridine] |
| 130 nM | c1ccc(OC2CCN(CCOc3ccc(Oc4nc5ncccc5s4)cc3)CC2)cc1 [Example 8, 2-{4-[2-(4-Phenoxypiperidin-1-yl)ethoxy]phenoxy}[1,3]thiazolo[4,5-b]pyridine] |
| 130 nM | CC(=O)N1C[C@@H]2C[C@H]1CN2CCOc1ccc(Oc2nc3cccnc3s2)cc1 [Example 20, 2-(4-{2-[(1S,4S)-5-Acetyl-2,5-diazabicyclo[2.2.1]hept-2-yl]ethoxy}phenoxy)[1,3]thiazolo[5,4-b]pyridine] |
| 160 nM | NC(=O)N1C[C@@H]2C[C@H]1CN2CCOc1ccc(Oc2nc3cccnc3s2)cc1 [Example 21, (1S,4S)-5-{2-[4-([1,3]Thiazolo[5,4-b]pyridin-2-yloxy)phenoxy]ethyl}-2,5-diazabicyclo[2.2.1]heptane-2-carboxamide] |
| 160 nM | c1ccc(CC2CCN(CCOc3ccc(Oc4nc5nccnc5s4)cc3)CC2)cc1 [Example 23, 2-{4-[2-(4-Benzylpiperidin-1-yl)ethoxy]phenoxy}[1,3]thiazolo[4,5-b]pyrazine] |
| 160 nM | OC1(c2ccc(Cl)cc2)CCN(CCOc2ccc(Oc3nc4nccnc4s3)cc2)CC1 [Example 25, 4-(4-Chlorophenyl)-1-{2-[4-([1,3]thiazolo[4,5-b]pyrazin-2-yloxy)phenoxy]ethyl}piperidin-4-ol] |
| 160 nM | OC1(c2cccc(C(F)(F)F)c2)CCN(CCOc2ccc(Oc3nc4cccnc4s3)cc2)CC1 [Example 37, 1-{2-[4-([1,3]Thiazolo[5,4-b]pyridin-2-yloxy)phenoxy]ethyl}-4-[3-(trifluoromethyl)phenyl]piperidin-4-ol] |
| 140 nM | O=C1CCCN1C1CCN(CCOc2ccc(Oc3nc4cccnc4s3)cc2)CC1 [Example 43, 1-(1-{2-[4-([1,3]Thiazolo[5,4-b]pyridin-2-yloxy)phenoxy]ethyl}piperidin-4-yl)pyrrolidin-2-one] |
| 110 nM | CC(=O)N1C[C@@H]2C[C@H]1CN2CCc1ccc(Oc2nc3cccnc3s2)cc1 [Example 51, 2-(4-{2-[(1S,4S)-5-Acetyl-2,5-diazabicyclo[2.2.1]hept-2-yl]ethyl}phenoxy)[1,3]thiazolo[5,4-b]pyridine] |
| 8.3 nM | OC1(c2ccccc2)CCN(CCc2ccc(Oc3nc4ncccc4s3)cc2)CC1 [Example 62, 4-Phenyl-1-{2-[4-([1,3]thiazolo[4,5-b]pyridin-2-yloxy)phenyl]ethyl}piperidin-4-ol] |
| 16 nM | c1ccc(CC2CCN(CCc3ccc(Oc4nc5ncccc5s4)cc3)CC2)cc1 [Example 63, 2-{4-[2-(4-Benzylpiperidin-1-yl)ethyl]phenoxy}[1,3]thiazolo[4,5-b]pyridine] |
| 190 nM | NC(=O)C1CCN(CCc2ccc(Oc3nc4cccnc4s3)cc2)CC1 [Example 67, 1-{2-[4-([1,3]Thiazolo[5,4-b]pyridin-2-yloxy)phenyl]ethyl}piperidine-4-carboxamide] |
| 120 nM | CC(=O)N1CC2CN(CCc3ccc(Oc4nc5cccnc5s4)cc3)CC2C1 (stereo not drawn) [Example 69, 2-{4-[2-(5-Acetylhexahydropyrrolo[3,4-c]pyrrol-2(1H)-yl)ethyl]phenoxy}[1,3]thiazolo[5,4-b]pyridine] |
| 160 nM | NC(=O)N1C[C@@H]2C[C@H]1CN2CCc1ccc(Oc2nc3cccnc3s2)cc1 [Example 78, (1S,4S)-5-{2-[4-([1,3]Thiazolo[5,4-b]pyridin-2-yloxy)phenyl]ethyl}-2,5-diazabicyclo[2.2.1]heptane-2-carboxamide] |
| 140 nM | OCC1CN(Cc2ccc(Oc3nc4ncccc4s3)cc2)CCO1 (stereo not drawn) [Example 82, {4-[4-([1,3]Thiazolo[4,5-b]pyridin-2-yloxy)benzyl]morpholin-2-yl}methanol] |
| 180 nM | CC(=O)N1C[C@@H]2C[C@H]1CN2Cc1ccc(Oc2nc3cc(F)cnc3s2)cc1 [Example 123, 2-(4-{[(1S,4S)-5-Acetyl-2,5-diazabicyclo[2.2.1]hept-2-yl]methyl}phenoxy)-6-fluoro[1,3]thiazolo[5,4-b]pyridine] |
